Measurements reported in patent publication US7718767B2, “3-ether and 3-thioether substituted cyclosporin derivatives for the treatment and prevention of hepatitis C infection” (Scynexis, Inc., priority 2006, dated 2010).
pEC50, pIC50: −log10 of the molar value.

What was measured:
CEM-SS cells = experiment: Compound cytotoxicity in the HIV MTS assay (cells plus drug only); format: cell-based, human; details: 50% inhibition of cell growth
Protocol: In this MTS cytoprotection assay, each experiment included cell control wells (cells only), virus control wells (cells plus virus), drug toxicity wells (cells plus drug only), drug colorimetric control wells (drug only) as well as experimental wells (drug plus cells plus virus). […] HIV-1RF was added to each well in a volume of 50 μL, the amount of virus determined to give approximately 90% cell killing at 6 days post-infection. At assay termination, assay plates were stained with the soluble tetrazolium-based dye MTS (CellTiter 96 Reagent, Promega) to determine cell viability and quantify compound toxicity. MTS is metabolized by the mitochondria enzymes of metabolically active cells to yield a soluble formazan product, providing a quantitative analysis of cell viability and compound cytotoxicity. The assay was validated in parallel experiments using Zidovudine (3′-azido-3′-deoxythymidine or AZT) as a positive control.

[1] = test system: human hepatoma cell line ET; experiment: Cytotoxicity in the replicon cell line, colorimetric assay of cell numbers; details: ET cells, 72 h; for pIC50: read-out: Cytotoxicity IC50, concentration inhibiting cell viability by 50%; for IC90: read-out: Cytotoxicity IC90, concentration inhibiting cell viability by 90%
Description: Compounds were examined in the human hepatoma cell line ET (lub ubi heo/ET), a HCV RNA replicon containing a stable luciferase (LUC) reporter. The HCV RNA replicon ET contains the 5′ end of HCV (with the HCV Internal Ribosome Entry Site (IRES) and the first few amino acids of the HCV core protein) which drives the production of a firefly luciferase (LUC), ubiquitin, and neomycin phosphotransferase (NeoR) fusion protein. Ubiquitin cleavage releases the LUC and NeoR proteins. The EMCV IRES element controls the translation of the HCV […] NS3-NS5. The NS3 protein cleaves the HCV polyprotein to release the mature NS3, NS4A, NS4B, NS5A and NS5B proteins that are required for HCV replication. At the 3′ end of the replicon is the authentic 3′ NTR of HCV. The activity of the LUC reporter is directly proportional to HCV replication levels and positive-control antiviral compounds produce a reproducible antiviral response using the LUC endpoint.
The compounds were dissolved in DMSO at five half-log concentrations each, ranging from either 0.02 to 2.0 μM, 0.03 to 3 μM, […], or 1 to 100 μM. Subconfluent cultures of the ET line were plated out into 96 well plates dedicated for the analysis of cell numbers (cytotoxicity) or antiviral activity and the next day the compounds were added to the appropriate wells. The cells were processed 72 h later when the cells were still subconfluent. […] The activity of the LUC reporter is directly proportional to HCV RNA levels in the human cell line. The HCV-replicon assay was validated in parallel experiments using interferon-alpha-2b as a positive control.

HCV RNA replicon ET = experiment: HCV RNA replicon luciferase reporter assay, antiviral activity; format: cell-based; details: ET replicon cells, 72 h, LUC activity; for pEC50: concentration reducing viral replication by 50%; for EC90: concentration reducing viral replication by 90%
HIV-1IIIB = experiment: HIV MTS cytoprotection assay in CEM-SS cells; format: cell-based, human immunodeficiency virus-1; details: 6 days post-infection, concentration inhibiting virus replication by 50%

Compound	pIC50 (CEM-SS cells)	pIC50 [1]	IC90 [1]	pEC50 (HCV RNA replicon ET)	EC90 (HCV RNA replicon ET)	pEC50 (HIV-1IIIB)
C/C=C/C[C@@H](C)[C@@H](O)[C@H]1C(=O)N[C@@H](CC)C(=O)N(C)C(OC)C(=O)N(C)[C@@H](CC(C)(C)O)C(=O)N[C@@H](C(C)C)C(=O)N(C)[C@@H](CC(C)C)C(=O)N[C@@H](C)C(=O)N[C@H](C)C(=O)N(C)[C@@H](CC(C)C)C(=O)N(C)[C@@H](CC(C)C)C(=O)N(C)[C@@H](C(C)C)C(=O)N1C (stereo partly shown) [Compound T, 3-(methoxy)-4-(gamma-hydroxymethylleucine)cyclosporin]	4.74	< 5.70	> 2 µM			
C/C=C/C[C@@H](C)[C@@H](O)[C@H]1C(=O)N[C@@H](CC)C(=O)N(C)[C@H](SCCOC)C(=O)N(C)[C@@H](CC(C)C)C(=O)N[C@@H](C(C)C)C(=O)N(C)[C@@H](CC(C)C)C(=O)N[C@@H](C)C(=O)N[C@H](C)C(=O)N(C)[C@@H](CC(C)C)C(=O)N(C)[C@@H](CC(C)C)C(=O)N(C)[C@@H](C(C)C)C(=O)N1C [R, 3-[(2-methoxy)ethylthio]cyclosporin]	4.76	4.95	> 20 µM	6.51	0.59 µM	6.30
C/C=C/C[C@@H](C)[C@@H](O)[C@H]1C(=O)N[C@@H](CC)C(=O)N(C)[C@H](OCCN2CCOCC2)C(=O)N(C)[C@@H](CC(C)C)C(=O)N[C@@H](C(C)C)C(=O)N(C)[C@@H](CC(C)C)C(=O)N[C@@H](C)C(=O)N[C@H](C)C(=O)N(C)[C@@H](CC(C)C)C(=O)N(C)[C@@H](CC(C)C)C(=O)N(C)[C@@H](C(C)C)C(=O)N1C [Compound L, 3-[2-(N-morpholine)ethoxy)cyclosporin]	4.71	4.94	> 20 µM	6.55	1.25 µM	5.71
C/C=C/C[C@@H](C)[C@@H](O)[C@H]1C(=O)N[C@@H](CC)C(=O)N(C)[C@H](SCCN(C)C)C(=O)N(C)[C@@H](CC(C)(C)O)C(=O)N[C@@H](C(C)C)C(=O)N(C)[C@@H](CC(C)C)C(=O)N[C@@H](C)C(=O)N[C@H](C)C(=O)N(C)[C@@H](CC(C)C)C(=O)N(C)[C@@H](CC(C)C)C(=O)N(C)[C@@H](C(C)C)C(=O)N1C [Compound O, 3-[(R)-2-(N,N-dimethylamino)ethylthio-Sar]-4-(gamma-hydroxymethylleucine)cyclosporin]	4.70	4.87	> 20 µM	6.91	0.3 µM	7.22
C/C=C/C[C@@H](C)[C@@H](O)[C@H]1C(=O)N[C@@H](CC)C(=O)N(C)[C@H](OCCCOC)C(=O)N(C)[C@@H](CC(C)(C)O)C(=O)N[C@@H](C(C)C)C(=O)N(C)[C@@H](CC(C)C)C(=O)N[C@@H](C)C(=O)N[C@H](C)C(=O)N(C)[C@@H](CC(C)C)C(=O)N(C)[C@@H](CC(C)C)C(=O)N(C)[C@@H](C(C)C)C(=O)N1C [Y, 3-[3-(methoxy)propoxy]-4-(gamma-hydroxymethylleucine)cyclosporin]	< 4.70	< 5.70	> 2 µM	6.52	0.95 µM	6.28
C/C=C/C[C@@H](C)[C@@H](O)[C@H]1C(=O)N[C@@H](CC)C(=O)N(C)C(OCCOC)C(=O)N(C)[C@@H](CC(C)(C)O)C(=O)N[C@@H](C(C)C)C(=O)N(C)[C@@H](CC(C)C)C(=O)N[C@@H](C)C(=O)N[C@H](C)C(=O)N(C)[C@@H](CC(C)C)C(=O)N(C)[C@@H](CC(C)C)C(=O)N(C)[C@@H](C(C)C)C(=O)N1C (stereo partly shown) [X, 3-[2-(methoxy)ethoxy]-4-(gamma-hydroxymethylleucine)cyclosporin]	< 4.70	< 5.70	> 2 µM	6.32	1.5 µM	6.00
C=CCS[C@@H]1C(=O)N(C)[C@@H](CC(C)C)C(=O)N[C@@H](C(C)C)C(=O)N(C)[C@@H](CC(C)C)C(=O)N[C@@H](C)C(=O)N[C@H](C)C(=O)N(C)[C@@H](CC(C)C)C(=O)N(C)[C@@H](CC(C)C)C(=O)N(C)[C@@H](C(C)C)C(=O)N(C)[C@@H]([C@H](O)[C@H](C)C/C=C/C)C(=O)N[C@@H](CC)C(=O)N1C [Q, 3-propenylthiocyclosporin]	4.72	4.72	> 20 µM	6.68	0.62 µM	6.64
C/C=C/C[C@@H](C)[C@@H](O)[C@H]1C(=O)N[C@@H](CC)C(=O)N(C)C(SCC)C(=O)N(C)[C@@H](CC(C)C)C(=O)N[C@@H](C(C)C)C(=O)N(C)[C@@H](CC(C)C)C(=O)N[C@@H](C)C(=O)N[C@H](C)C(=O)N(C)[C@@H](CC(C)C)C(=O)N(C)[C@@H](CC(C)C)C(=O)N(C)[C@@H](C(C)C)C(=O)N1C (stereo partly shown) [P, 3-ethylthiocyclosporin]	5.21	5.21	> 20 µM	6.64	0.58 µM	6.80
C/C=C/C[C@@H](C)[C@@H](O)[C@H]1C(=O)N[C@@H](CC)C(=O)N(C)C(SC)C(=O)N(C)[C@@H](CC(C)(C)O)C(=O)N[C@@H](C(C)C)C(=O)N(C)[C@@H](CC(C)C)C(=O)N[C@@H](C)C(=O)N[C@H](C)C(=O)N(C)[C@@H](CC(C)C)C(=O)N(C)[C@@H](CC(C)C)C(=O)N(C)[C@@H](C(C)C)C(=O)N1C (stereo partly shown) [S, 3-(methylthio)-4-(gamma-hydroxymethylleucine)cyclosporin]	4.85	< 5.70	> 2 µM		0.16 µM	7.05
C/C=C/C[C@@H](C)[C@@H](O)[C@H]1C(=O)N[C@@H](CC)C(=O)N(C)C(OCCCO)C(=O)N(C)[C@@H](CC(C)C)C(=O)N[C@@H](C(C)C)C(=O)N(C)[C@@H](CC(C)C)C(=O)N[C@@H](C)C(=O)N[C@H](C)C(=O)N(C)[C@@H](CC(C)C)C(=O)N(C)[C@@H](CC(C)C)C(=O)N(C)[C@@H](C(C)C)C(=O)N1C (stereo partly shown) [H, 3-(3-hydroxypropoxy)cyclosporin]	4.88	< 4.70	> 20 µM	> 6.70	0.37 µM	5.86
C/C=C/C[C@@H](C)[C@@H](O)[C@H]1C(=O)N[C@@H](CC)C(=O)N(C)[C@H](SCCOC)C(=O)N(C)[C@@H](CC(C)(C)O)C(=O)N[C@@H](C(C)C)C(=O)N(C)[C@@H](CC(C)C)C(=O)N[C@@H](C)C(=O)N[C@H](C)C(=O)N(C)[C@@H](CC(C)C)C(=O)N(C)[C@@H](CC(C)C)C(=O)N(C)[C@@H](C(C)C)C(=O)N1C [Compound N, 3-(2-methoxyethylthio)-4-(gamma-hydroxymethylleucine)cyclosporin]		< 4.70	> 20 µM	> 6.70	< 0.2 µM	6.46
C=CCO[C@@H]1C(=O)N(C)[C@@H](CC(C)(C)O)C(=O)N[C@@H](C(C)C)C(=O)N(C)[C@@H](CC(C)C)C(=O)N[C@@H](C)C(=O)N[C@H](C)C(=O)N(C)[C@@H](CC(C)C)C(=O)N(C)[C@@H](CC(C)C)C(=O)N(C)[C@@H](C(C)C)C(=O)N(C)[C@@H]([C@H](O)[C@H](C)C/C=C/C)C(=O)N[C@@H](CC)C(=O)N1C [U, 3-(prop-2-ene-1-oxy)-4-(gamma-hydroxymethylleucine)cyclosporin]	4.87	< 5.70	> 2 µM	7.05	0.45 µM	6.96
